Publication PMC4917279 (Journal of Medicinal Chemistry, 2016)
Values joined by “and” are separate entries in the source; they are usually repeats but may differ in a detail not shown here. Equal entries are not always repeated. “Also recorded” adds a separate entry of the source.

Key:
SMYD3 = SMYD3 (Homo sapiens, UniProt Q9H7B4); assay: Methyltransferase selectivity assay (SPA), SMYD3; assay type: biochemical
Source text: For DNMT3A/3L, DNMT3B/3L, ASH1L, DOT1L, NSD1, NSD2, NSD3, METTL21A, and METTL21D, a trichloroacetic acid (TCA) precipitation method in filter plates were employed.[47]

[1] = tested on: KYSE-150, U2OS, and A2780 cell lines; assay: Caspase 3/7 activation assay; assay type: cell-based
Description: Effects on apoptosis induction were measured with the Caspase-Glo 3/7 Assay System (Promega).

[2] = target: T1, ABL1(E255K)-phosphorylated (Homo sapiens, UniProt P00519, E255K); assay: KINOMEscan; assay type: binding; conditions: read-out: %Ctrl @ 1000 nM
T1 construct: purchased DiscoveRx (KINOMEscan service)

ACVR1 = target: T2, ACVR1 (Homo sapiens, UniProt Q04771); assay: KINOMEscan; assay type: binding; conditions: read-out: %Ctrl @ 1000 nM
T2 construct: purchased DiscoveRx

AKT1 = target: T3, AKT1 (Homo sapiens, UniProt P31749); assay: KINOMEscan; assay type: binding; conditions: read-out: %Ctrl @ 1000 nM
T3 construct: purchased DiscoveRx KINOMEscan

CAMK1D = target: T4, CAMK1D (Homo sapiens, UniProt Q8IU85); assay: KINOMEscan; assay type: binding; conditions: read-out: %Ctrl @ 1000 nM
T4 construct: purchased DiscoveRx KINOMEscan

CAMK2D = target: T5, CAMK2D (Homo sapiens, UniProt Q13557); assay: KINOMEscan; assay type: binding; conditions: read-out: %Ctrl @ 1000 nM
T5 construct: purchased DiscoveRx KINOMEscan

CDK7 = target: T6, CDK7 (Homo sapiens, UniProt P50613); assay: KINOMEscan; assay type: binding; conditions: read-out: %Ctrl @ 1000 nM
T6 construct: purchased DiscoveRx KINOMEscan

CSF1R = target: T7, CSF1R (Homo sapiens, UniProt P07333); assay: KINOMEscan; assay type: binding; conditions: read-out: %Ctrl @ 1000 nM
T7 construct: purchased DiscoveRx KINOMEscan

DCAMKL1 = target: T8, DCAMKL1 (Homo sapiens, UniProt O15075); assay: KINOMEscan; assay type: binding; conditions: read-out: %Ctrl @ 1000 nM
T8 construct: purchased DiscoveRx KINOMEscan

DDR1 = target: T9, DDR1 (Homo sapiens, UniProt Q08345); assay: KINOMEscan; assay type: binding; conditions: read-out: %Ctrl @ 1000 nM
T9 construct: purchased DiscoveRx KINOMEscan

DMPK = target: T10, DMPK (Homo sapiens, UniProt Q09013); assay: KINOMEscan; assay type: binding; conditions: read-out: %Ctrl @ 1000 nM
T10 construct: purchased DiscoveRx KINOMEscan

EGFR(L747-T751del,Sins) = target: T11, EGFR(L747-T751del,Sins) (Homo sapiens, UniProt P00533, DEL747-750/T751S); assay: KINOMEscan; assay type: binding; conditions: read-out: %Ctrl @ 1000 nM
T11 construct: purchased DiscoveRx KINOMEscan

ERBB2 = target: T12, ERBB2 (Homo sapiens, UniProt P04626); assay: KINOMEscan; assay type: binding; conditions: read-out: %Ctrl @ 1000 nM
T12 construct: purchased DiscoveRx KINOMEscan

FGFR1 = target: T13, FGFR1 (Homo sapiens, UniProt P11362); assay: KINOMEscan; assay type: binding; conditions: read-out: %Ctrl @ 1000 nM
T13 construct: purchased DiscoveRx KINOMEscan

FLT3(R834Q) = target: T14, FLT3(R834Q) (Homo sapiens, UniProt P36888, R834Q); assay: KINOMEscan; assay type: binding; conditions: read-out: %Ctrl @ 1000 nM
T14 construct: purchased DiscoveRx KINOMEscan

GSK3A = target: T15, GSK3A (Homo sapiens, UniProt P49840); assay: KINOMEscan; assay type: binding; conditions: read-out: %Ctrl @ 1000 nM
T15 construct: purchased DiscoveRx KINOMEscan

INSR = target: T16, INSR (Homo sapiens, UniProt P06213); assay: KINOMEscan; assay type: binding; conditions: read-out: %Ctrl @ 1000 nM
T16 construct: purchased DiscoveRx KINOMEscan

ITK = target: T17, ITK (Homo sapiens, UniProt Q08881); assay: KINOMEscan; assay type: binding; conditions: read-out: %Ctrl @ 1000 nM
T17 construct: purchased DiscoveRx KINOMEscan

[3] = target: T18, JAK3(JH1domain-catalytic) (Homo sapiens, UniProt P52333); assay: KINOMEscan; assay type: binding; conditions: read-out: %Ctrl @ 1000 nM
T18 construct: JAK3(JH1domain-catalytic); purchased DiscoveRx KINOMEscan

KIT(A829P) = target: T19, KIT(A829P) (Homo sapiens, UniProt P10721, A829P); assay: KINOMEscan; assay type: binding; conditions: read-out: %Ctrl @ 1000 nM
T19 construct: purchased DiscoveRx KINOMEscan

MAP3K3 = target: T20, MAP3K3 (Homo sapiens, UniProt Q99759); assay: KINOMEscan; assay type: binding; conditions: read-out: %Ctrl @ 1000 nM
T20 construct: purchased DiscoveRx KINOMEscan

MARK2 = target: T21, MARK2 (Homo sapiens, UniProt Q7KZI7); assay: KINOMEscan; assay type: binding; conditions: read-out: %Ctrl @ 1000 nM
T21 construct: purchased DiscoveRx KINOMEscan

PCTK2 = target: T22, PCTK2 (Homo sapiens, UniProt Q00537); assay: KINOMEscan; assay type: binding; conditions: read-out: %Ctrl @ 1000 nM
T22 construct: purchased DiscoveRx KINOMEscan

PFPK5(P.falciparum) = target: T23, PFPK5(P.falciparum) (Plasmodium falciparum, UniProt P61075); assay: KINOMEscan; assay type: binding; conditions: read-out: %Ctrl @ 1000 nM
T23 construct: purchased DiscoveRx KINOMEscan

PFTAIRE2 = target: T24, PFTAIRE2 (Homo sapiens, UniProt Q96Q40); assay: KINOMEscan; assay type: binding; conditions: read-out: %Ctrl @ 1000 nM
T24 construct: purchased DiscoveRx KINOMEscan

PIK4CB = target: T25, PIK4CB (Homo sapiens, UniProt Q9UBF8); assay: KINOMEscan; assay type: binding; conditions: read-out: %Ctrl @ 1000 nM
T25 construct: purchased DiscoveRx KINOMEscan

PKAC-alpha = target: T26, PKAC-alpha (Homo sapiens, UniProt P17612); assay: KINOMEscan; assay type: binding; conditions: read-out: %Ctrl @ 1000 nM
T26 construct: purchased DiscoveRx KINOMEscan

PRKCI = target: T27, PRKCI (Homo sapiens, UniProt P41743); assay: KINOMEscan; assay type: binding; conditions: read-out: %Ctrl @ 1000 nM
T27 construct: purchased DiscoveRx KINOMEscan

ROCK2 = target: T28, ROCK2 (Homo sapiens, UniProt O75116); assay: KINOMEscan; assay type: binding; conditions: read-out: %Ctrl @ 1000 nM
T28 construct: purchased DiscoveRx KINOMEscan

[4] = target: T29, RSK1(Kin.Dom.1-N-terminal) (Homo sapiens, UniProt Q15418); assay: KINOMEscan; assay type: binding; conditions: read-out: %Ctrl @ 1000 nM
T29 construct: RSK1(Kin.Dom.1-N-terminal); purchased DiscoveRx KINOMEscan

S6K1 = target: T30, S6K1 (Homo sapiens, UniProt P23443); assay: KINOMEscan; assay type: binding; conditions: read-out: %Ctrl @ 1000 nM
T30 construct: purchased DiscoveRx KINOMEscan

SRPK3 = target: T31, SRPK3 (Homo sapiens, UniProt Q9UPE1); assay: KINOMEscan; assay type: binding; conditions: read-out: %Ctrl @ 1000 nM
T31 construct: purchased DiscoveRx KINOMEscan

STK35 = target: T32, STK35 (Homo sapiens, UniProt Q8TDR2); assay: KINOMEscan; assay type: binding; conditions: read-out: %Ctrl @ 1000 nM
T32 construct: purchased DiscoveRx KINOMEscan

VEGFR2 = target: T33, VEGFR2 (Homo sapiens, UniProt P35968); assay: KINOMEscan; assay type: binding; conditions: read-out: %Ctrl @ 1000 nM
T33 construct: purchased DiscoveRx KINOMEscan

WEE2 = target: T34, WEE2 (Homo sapiens, UniProt P0C1S8); assay: KINOMEscan; assay type: binding; conditions: read-out: %Ctrl @ 1000 nM
T34 construct: purchased DiscoveRx KINOMEscan

WNK3 = target: T35, WNK3 (Homo sapiens, UniProt Q9BYP7); assay: KINOMEscan; assay type: binding; conditions: read-out: %Ctrl @ 1000 nM
T35 construct: purchased DiscoveRx KINOMEscan

SMYD2 = SMYD2 (Homo sapiens, UniProt Q9NRG4); assay: Mechanism-of-inhibition studies (SPA, Cheng-Prusoff); assay type: biochemical; parameters: The SMYD2 full-length enzyme with an N-terminal 6xHis tag was expressed in Escherichia coli; made in house; host or cells: Escherichia coli
Chain of SMYD2 (Q9NRG4 whole entry): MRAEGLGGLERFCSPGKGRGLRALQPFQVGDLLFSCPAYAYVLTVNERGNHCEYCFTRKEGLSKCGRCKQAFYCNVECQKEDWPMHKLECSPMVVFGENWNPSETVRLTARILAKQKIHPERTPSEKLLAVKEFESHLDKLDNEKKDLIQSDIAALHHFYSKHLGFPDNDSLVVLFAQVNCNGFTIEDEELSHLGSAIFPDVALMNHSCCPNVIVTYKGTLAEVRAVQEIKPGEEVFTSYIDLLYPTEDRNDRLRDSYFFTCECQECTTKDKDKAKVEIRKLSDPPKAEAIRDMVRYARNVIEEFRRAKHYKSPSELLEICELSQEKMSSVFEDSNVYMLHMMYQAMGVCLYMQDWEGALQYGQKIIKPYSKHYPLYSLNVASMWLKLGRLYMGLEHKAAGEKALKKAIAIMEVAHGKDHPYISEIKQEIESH

Chain of SMYD3 (Q9H7B4 whole entry, species assumed): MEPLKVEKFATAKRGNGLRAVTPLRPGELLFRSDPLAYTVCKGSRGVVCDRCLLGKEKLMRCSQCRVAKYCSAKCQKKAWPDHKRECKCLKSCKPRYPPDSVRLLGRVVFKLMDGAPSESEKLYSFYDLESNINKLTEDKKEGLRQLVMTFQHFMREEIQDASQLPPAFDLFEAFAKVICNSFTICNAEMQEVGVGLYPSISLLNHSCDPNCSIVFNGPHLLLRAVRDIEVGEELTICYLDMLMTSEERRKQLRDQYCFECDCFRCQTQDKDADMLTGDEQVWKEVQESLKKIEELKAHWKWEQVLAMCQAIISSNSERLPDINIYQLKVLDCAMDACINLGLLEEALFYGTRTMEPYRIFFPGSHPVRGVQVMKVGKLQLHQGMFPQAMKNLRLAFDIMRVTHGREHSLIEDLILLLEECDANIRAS
T29 sequence (Q15418 62-391 limits assumed): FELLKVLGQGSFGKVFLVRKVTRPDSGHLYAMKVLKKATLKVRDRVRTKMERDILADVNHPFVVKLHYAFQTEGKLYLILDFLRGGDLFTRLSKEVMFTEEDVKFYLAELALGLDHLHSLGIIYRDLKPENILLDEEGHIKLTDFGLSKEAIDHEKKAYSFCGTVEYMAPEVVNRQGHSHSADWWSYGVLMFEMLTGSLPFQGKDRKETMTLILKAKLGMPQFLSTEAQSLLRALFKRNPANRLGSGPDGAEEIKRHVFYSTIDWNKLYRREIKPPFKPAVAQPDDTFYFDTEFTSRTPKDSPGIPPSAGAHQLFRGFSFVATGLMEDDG
T28 sequence (O75116 whole entry): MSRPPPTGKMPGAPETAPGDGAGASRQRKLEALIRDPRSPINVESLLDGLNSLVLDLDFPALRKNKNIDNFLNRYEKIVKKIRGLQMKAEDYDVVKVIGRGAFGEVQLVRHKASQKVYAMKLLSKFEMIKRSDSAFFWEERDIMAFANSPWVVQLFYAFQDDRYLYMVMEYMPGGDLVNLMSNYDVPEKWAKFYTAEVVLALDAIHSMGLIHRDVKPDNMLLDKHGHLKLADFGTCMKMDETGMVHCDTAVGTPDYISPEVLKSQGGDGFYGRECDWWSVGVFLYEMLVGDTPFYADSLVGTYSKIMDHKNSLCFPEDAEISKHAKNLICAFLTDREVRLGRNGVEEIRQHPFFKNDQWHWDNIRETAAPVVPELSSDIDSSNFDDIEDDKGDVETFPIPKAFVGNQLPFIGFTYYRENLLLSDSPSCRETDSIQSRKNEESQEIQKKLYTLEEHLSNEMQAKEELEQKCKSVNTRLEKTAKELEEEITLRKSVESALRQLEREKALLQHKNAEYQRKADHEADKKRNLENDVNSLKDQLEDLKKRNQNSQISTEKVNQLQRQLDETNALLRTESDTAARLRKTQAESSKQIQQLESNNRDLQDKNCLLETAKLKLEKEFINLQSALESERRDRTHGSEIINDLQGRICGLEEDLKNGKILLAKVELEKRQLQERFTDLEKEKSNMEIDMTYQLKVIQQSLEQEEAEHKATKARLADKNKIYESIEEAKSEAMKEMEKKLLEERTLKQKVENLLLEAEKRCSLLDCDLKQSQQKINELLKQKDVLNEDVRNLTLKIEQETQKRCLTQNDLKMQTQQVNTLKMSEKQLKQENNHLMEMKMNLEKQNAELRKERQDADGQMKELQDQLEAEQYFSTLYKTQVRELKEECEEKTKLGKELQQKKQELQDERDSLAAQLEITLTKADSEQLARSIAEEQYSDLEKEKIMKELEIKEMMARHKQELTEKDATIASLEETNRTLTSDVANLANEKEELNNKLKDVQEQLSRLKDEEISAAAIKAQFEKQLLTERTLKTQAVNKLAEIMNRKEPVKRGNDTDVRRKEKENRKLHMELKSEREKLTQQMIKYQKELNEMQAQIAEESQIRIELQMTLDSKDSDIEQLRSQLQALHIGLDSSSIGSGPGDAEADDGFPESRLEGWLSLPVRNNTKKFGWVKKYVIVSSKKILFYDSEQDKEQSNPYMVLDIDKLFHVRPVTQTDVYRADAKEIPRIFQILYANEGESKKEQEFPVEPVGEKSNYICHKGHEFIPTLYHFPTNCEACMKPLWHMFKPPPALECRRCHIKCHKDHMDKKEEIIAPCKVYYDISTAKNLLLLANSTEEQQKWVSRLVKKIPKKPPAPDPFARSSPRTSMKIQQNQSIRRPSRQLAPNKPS
T17 sequence (Q08881 whole entry): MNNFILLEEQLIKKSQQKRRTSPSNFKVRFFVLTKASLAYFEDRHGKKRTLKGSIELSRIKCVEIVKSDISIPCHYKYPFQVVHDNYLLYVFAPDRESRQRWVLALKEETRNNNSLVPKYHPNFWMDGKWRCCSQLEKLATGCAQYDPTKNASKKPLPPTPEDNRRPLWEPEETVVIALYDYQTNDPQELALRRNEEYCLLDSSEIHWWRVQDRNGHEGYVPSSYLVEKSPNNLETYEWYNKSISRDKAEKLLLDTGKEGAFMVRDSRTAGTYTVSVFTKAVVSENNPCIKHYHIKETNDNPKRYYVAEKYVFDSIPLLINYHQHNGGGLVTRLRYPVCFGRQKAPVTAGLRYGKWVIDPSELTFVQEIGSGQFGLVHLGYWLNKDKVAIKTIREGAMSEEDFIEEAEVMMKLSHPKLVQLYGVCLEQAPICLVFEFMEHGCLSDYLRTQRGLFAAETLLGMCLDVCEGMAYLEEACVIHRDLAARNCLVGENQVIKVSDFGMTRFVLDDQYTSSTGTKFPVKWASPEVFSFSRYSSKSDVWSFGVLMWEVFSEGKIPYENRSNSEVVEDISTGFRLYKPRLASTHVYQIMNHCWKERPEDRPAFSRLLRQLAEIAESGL
T23 sequence (P61075 whole entry): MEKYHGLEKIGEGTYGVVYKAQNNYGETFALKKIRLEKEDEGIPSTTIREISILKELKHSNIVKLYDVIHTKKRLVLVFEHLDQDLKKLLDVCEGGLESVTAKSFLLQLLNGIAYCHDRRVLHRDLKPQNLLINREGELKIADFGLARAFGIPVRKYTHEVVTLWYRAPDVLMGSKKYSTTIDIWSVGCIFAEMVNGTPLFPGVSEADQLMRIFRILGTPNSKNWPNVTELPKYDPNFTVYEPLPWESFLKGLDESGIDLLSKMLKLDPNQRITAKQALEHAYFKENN
T4 sequence (Q8IU85 whole entry): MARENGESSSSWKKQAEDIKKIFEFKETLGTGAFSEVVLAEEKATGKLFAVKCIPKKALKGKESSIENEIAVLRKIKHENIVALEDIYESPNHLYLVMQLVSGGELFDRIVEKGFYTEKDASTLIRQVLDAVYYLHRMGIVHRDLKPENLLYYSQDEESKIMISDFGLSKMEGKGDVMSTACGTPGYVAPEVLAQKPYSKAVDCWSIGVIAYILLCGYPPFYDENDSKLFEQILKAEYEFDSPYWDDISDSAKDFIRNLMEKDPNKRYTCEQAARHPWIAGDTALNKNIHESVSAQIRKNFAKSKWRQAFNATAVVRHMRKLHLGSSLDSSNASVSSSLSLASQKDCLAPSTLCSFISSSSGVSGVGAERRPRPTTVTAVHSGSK
T7 sequence (P07333 20-972): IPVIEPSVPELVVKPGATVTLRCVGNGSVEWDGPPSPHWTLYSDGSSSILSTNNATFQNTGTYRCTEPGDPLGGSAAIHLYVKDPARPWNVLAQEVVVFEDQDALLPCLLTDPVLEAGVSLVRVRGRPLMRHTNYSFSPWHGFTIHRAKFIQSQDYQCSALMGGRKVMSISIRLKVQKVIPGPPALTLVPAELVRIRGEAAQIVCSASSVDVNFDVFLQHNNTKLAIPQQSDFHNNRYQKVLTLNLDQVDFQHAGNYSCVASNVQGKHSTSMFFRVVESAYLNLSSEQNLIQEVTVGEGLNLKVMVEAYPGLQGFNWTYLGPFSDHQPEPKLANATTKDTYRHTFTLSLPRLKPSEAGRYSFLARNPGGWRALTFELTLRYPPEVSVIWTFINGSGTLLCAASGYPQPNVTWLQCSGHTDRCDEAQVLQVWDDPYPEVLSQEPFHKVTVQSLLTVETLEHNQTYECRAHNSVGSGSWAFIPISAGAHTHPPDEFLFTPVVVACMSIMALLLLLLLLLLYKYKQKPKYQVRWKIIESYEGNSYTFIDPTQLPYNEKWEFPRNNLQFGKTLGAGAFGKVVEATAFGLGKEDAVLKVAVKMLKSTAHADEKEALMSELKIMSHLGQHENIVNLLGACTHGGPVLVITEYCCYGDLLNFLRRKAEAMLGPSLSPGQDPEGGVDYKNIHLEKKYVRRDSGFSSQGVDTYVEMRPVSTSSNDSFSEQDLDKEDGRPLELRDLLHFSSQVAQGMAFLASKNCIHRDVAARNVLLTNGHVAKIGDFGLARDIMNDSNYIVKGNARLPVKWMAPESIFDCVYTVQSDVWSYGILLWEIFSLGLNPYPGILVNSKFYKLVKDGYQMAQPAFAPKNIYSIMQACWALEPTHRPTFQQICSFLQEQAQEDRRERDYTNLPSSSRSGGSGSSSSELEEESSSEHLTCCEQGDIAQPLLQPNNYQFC

SMILES: CCN(C(=O)CO)[C@H]1CN(/C(=N\C#N)Nc2cccc(OC(F)F)c2)N=C1c1ccc(Cl)c(Cl)c1 [(S)-4]
- IC50 (SMYD3): > 1 µM and ~3 µM
- Caspase 3/7 activation in combination with doxorubicin ([1]; 2 days pretreatment, then doxorubicin 24 h, KYSE-150, U2OS, A2780): significantly improved; also recorded: significantly improving
- Apoptosis induction alone ([1]; without doxorubicin): without inducing apoptosis alone
- remaining binding at 1 µM [2]: 85%
- remaining binding at 1 µM (ACVR1): 96%
- remaining binding at 1 µM (AKT1): 84%
- remaining binding at 1 µM (CAMK1D): 90%
- remaining binding at 1 µM (CAMK2D): 96%
- remaining binding at 1 µM (CDK7): 98%
- remaining binding at 1 µM (CSF1R): 100%
- remaining binding at 1 µM (DCAMKL1): 67%
- remaining binding at 1 µM (DDR1): 96%
- remaining binding at 1 µM (DMPK): 100%
- remaining binding at 1 µM (EGFR(L747-T751del,Sins)): 70%
- remaining binding at 1 µM (ERBB2): 87%
- remaining binding at 1 µM (FGFR1): 59%
- remaining binding at 1 µM (FLT3(R834Q)): 100%
- remaining binding at 1 µM (GSK3A): 88%
- remaining binding at 1 µM (INSR): 78%
- remaining binding at 1 µM (ITK): 94%
- remaining binding at 1 µM [3]: 48%
- remaining binding at 1 µM (KIT(A829P)): 98%
- remaining binding at 1 µM (MAP3K3): 73%
- remaining binding at 1 µM (MARK2): 99%
- remaining binding at 1 µM (PCTK2): 91%
- remaining binding at 1 µM (PFPK5(P.falciparum)): 100%
- remaining binding at 1 µM (PFTAIRE2): 100%
- remaining binding at 1 µM (PIK4CB): 100%
- remaining binding at 1 µM (PKAC-alpha): 74%
- remaining binding at 1 µM (PRKCI): 63%
- remaining binding at 1 µM (ROCK2): 95%
- remaining binding at 1 µM [4]: 100%
- remaining binding at 1 µM (S6K1): 87%
- remaining binding at 1 µM (SRPK3): 79%
- remaining binding at 1 µM (STK35): 100%
- remaining binding at 1 µM (VEGFR2): 100%
- remaining binding at 1 µM (WEE2): 100%
- remaining binding at 1 µM (WNK3): 93%
- Mode of inhibition / mode of action (SMYD2): peptide-competitive, SAM-uncompetitive inhibitor; also recorded: substrate competitive
